Patent US20160324820A1, “PHARMACEUTICAL COMPOSITIONS COMPRISING 15-HEPE AND METHODS OF TREATING ASTHMA AND LUNG DISORDERS USING SAME” (Dignity Sciences Limited, priority 2014, published 2016)

System: Hartley guinea pigs
Assay: Histamine-induced bronchoconstriction following seven days of oral gavage in anesthetized, ventilated guinea pigs
Format: in vivo, guinea pig
Conditions: for Change from baseline Respiratory Resistance (ventilator pressure), Average VP / Change from baseline Respiratory Resistance (ventilator pressure), Average RR: n=3
From the text: In an embodiment, the pharmacodynamics of a composition comprising 15-HEPE as disclosed herein may be examined using a model of a lung disease or disorder. In a more detailed embodiment, the effects of a composition comprising a vehicle, a positive control or 15-HEPE on ventilator pressure in histamine challenged guinea pigs serves as a model for the pharmacodynamics in asthma. In an exemplary method, guinea pigs are first dosed with compositions comprising a vehicle, a positive control or 15-HEPE for seven days. The treated guinea pigs can then be anesthetized and exposed to a nebulized bronchoconstictor to determine if 15-HEPE can reduce the increase in ventilatory pressure induced by a bronchoconstrictor. This serves as an effective model for asthma and other lung diseases. The guinea pig is a reliable animal model in respiratory research due to their respiratory sensitivity and their expression of similar respiratory reactions to those observed in humans. […] Adult male Hartley guinea pigs weighing approximately 450-500 g were acclimated least 5 days before the day of the beginning of the oral gavages. Animals were assigned to one of four groups (low dose, high dose, vehicle and positive control) and were double-housed per group during acclimation period. The test article was formulated using olive oil as the vehicle. A low and a high dose of 15-HEPE (50 mg/kg and 500 mg/kg) was formulated. A 1 mg/ml stock solution of bambuterol was prepared in an aqueous solution, and was then mixed with olive oil in the gavage syringe for the […]. The stock solution was stored at −20° C., but was used at room temperature and was considered stable for the duration of the experiment. A 5 μg/ml stock solution of histamine dihydrochloride (Sigma Aldrich) was prepared in a saline solution (0.9% NaCl). The stock solution was stored at 4° C. The expiration date was set at 14 days after preparation. The concentrations of positive control, (bambuterol 0.27 mg/kg/day) and the hypertensor (histamine 0.184, 0.919 and 1.84 μg/kg) were selected based on literature references. Each group received the designated compound by oral gavage using a 1 ml syringe. The dosing schedule was as follows: • Vehicle (olive oil) • Bambuterol 0.27 mg/kg/day • 15-HEPE 50 mg/kg/day • 15-HEPE 500 mg/kg/day The stock solutions were administered once per day for seven consecutive days. On the seventh dosage day the animals underwent surgery two hours after the oral feeding. All animal care and vivarium maintenance were recorded, with documents kept at the test facility. Guinea pigs were anesthetized with an intraperitoneal injection of urethane (1.5 g/kg). A tracheotomy was performed and the animals were mechanically ventilated throughout the experiment. The ventilatory pressure was recorded and analyzed for signs of bronchospasm. A pulse oxymeter was attached to each animal's hind paw to obtain heart beat and oxygen saturation on the anaesthetized guinea pigs to continuously monitor the general condition of the animals during the surgical procedure. Following baseline measurements, three doses of histamine (0.184, 0.919 and 1.84 μg/kg) were nebulized (constant volume tidal, 60 respirations per minute, 7.5 ml/sec), with an interval of 20 minutes between each dose, or until a steady state was reached. Respiratory resistance, heart rate, and oxygen saturation were monitored continuously for a period of about 1 hour post challenge. At the end of the experiment, the animals were euthanized by exsanguination. Clampfit 10.2.0.14 analysis software (Axon Instruments), installed on networked personal computers running Microsoft Windows was used. Clampfit 10.2.0.14 has been fully validated in the connected context in which it was used. The graphics software for illustrations is Microsoft Office Excel 2007 installed on networked personal computers running Microsoft Windows. […]

[1] = bambuterol 0.27 mg/kg/day gavage 7 days, nebulized histamine 0.184 (μg/kg)
[2] = bambuterol 0.27 mg/kg/day gavage 7 days, nebulized histamine 0.919 (μg/kg)
[3] = bambuterol 0.27 mg/kg/day gavage 7 days, nebulized histamine 1.84 (μg/kg)
[4] = 15-HEPE 500 mg/kg/day gavage 7 days, nebulized histamine 0.184 (μg/kg)
[5] = 15-HEPE 500 mg/kg/day gavage 7 days, nebulized histamine 0.919 (μg/kg)
[6] = 15-HEPE 500 mg/kg/day gavage 7 days, nebulized histamine 1.84 (μg/kg)

With `CN(C)C(=O)Oc1cc(OC(=O)N(C)C)cc(C(O)CNC(C)(C)C)c1` (stereo not shown) [Bambuterol, bambuterol, reference compound] the “Change from baseline Respiratory Resistance (ventilator pressure), Guinea pig #1” value (shortened to “Change … Guinea pig #1”) [1] was 0.2759 mmHg, the “Change from baseline Respiratory Resistance (ventilator pressure), Guinea pig #2” value (shortened to “Change … Guinea pig #2”) [1] was −0.05857 mmHg and the “Change from baseline Respiratory Resistance (ventilator pressure), Guinea pig #3” value (shortened to “Change … Guinea pig #3”) [1] was 1.238 mmHg. For the same compound, the “Change from baseline Respiratory Resistance (ventilator pressure), Average VP” value (shortened to “Change … Average VP”) [1] was 0.48 mmHg, the “Change … Guinea pig #1” value [2] was 1.099 mmHg and the “Change … Guinea pig #2” value [2] was 1.219 mmHg. For the same compound, the “Change … Guinea pig #3” value [2] was 2.266 mmHg, the “Change … Average VP” value [2] was 1.53 mmHg and the “Change … Guinea pig #1” value [3] was 2.215 mmHg. The “Change … Guinea pig #2” value [3] was 1.945 mmHg, the “Change … Guinea pig #3” value [3] was 2.651 mmHg and the “Change … Average VP” value [3] was 2.27 mmHg.
For `CCC=CCC(O)C=CC=CCC=CCC=CCCCC(=O)O` (stereo not shown) [15-HEPE, 15-Hydroxy-eicosa-5,8,11,13,17-pentaenoic acid], the “Change … Guinea pig #1” value [4] was 0.2098 mmHg, the “Change … Guinea pig #2” value [4] was 1.657 mmHg and the “Change … Guinea pig #3” value [4] was 0.6489 mmHg. For the same compound, the “Change from baseline Respiratory Resistance (ventilator pressure), Average RR” value (“Change … Average RR” for short) [4] was 0.84 mmHg, the “Change … Guinea pig #1” value [5] was 0.8494 mmHg and the “Change … Guinea pig #2” value [5] was 1.37 mmHg. The “Change … Guinea pig #3” value [5] was 2.34 mmHg, the “Change … Average RR” value [5] was 1.52 mmHg and the “Change … Guinea pig #1” value [6] was 2.169 mmHg. The “Change … Guinea pig #2” value [6] was 1.791 mmHg, the “Change … Guinea pig #3” value [6] was 3.913 mmHg and the “Change … Average RR” value [6] was 2.62 mmHg. For the same compound, the lung ventilatory pressure (test animals challenged with a bronchoconstrictor, result in words) was “improve lung ventilatory pressure”.
